Data from patent US20230242585A1, “IMMUNOMODULATORS” (Bristol-Myers Squibb Company, priority 2020, published 2023).
Starred links: 1 amine or outer side, 2 acyl side, 3 side chain; linkers in the order of their positions; H or OH if unused. Positions of bridges follow the written chain, without caps; N, C: chain ends. Non-standard residues stand in square brackets, D forms with d. Residues, ends and D or L forms follow the SMILES beside them. X53 = O=C([C@H](CCNC[C@H](O)[C@@H](O)[C@H](O)C(O)CO[C@H]1O[C@H](CO)[C@H](O)[C@H](O)[C@H]1O)N[*:1])[*:2]; X39 = O=C([C@H](CNC[C@H](O)[C@@H](O)[C@H](O)C(O)CO[C@H]1O[C@H](CO)[C@H](O)[C@H](O)[C@H]1O)N[*:1])[*:2]; X66 = C[C@H](O)[C@H](O)[C@@H](O)[C@@H](O)CNCC[C@H](N[*:1])C(=O)[*:2]; X52 = C[C@H](O)[C@H](O)[C@@H](O)[C@@H](O)CNC[C@H](N[*:1])C(=O)[*:2]; Trp(1-CH2COOH) = N[C@@H](Cc1cn(CC(=O)O)c2ccccc12)C(=O)O; Hyp = O=C(O)[C@@H]1C[C@@H](O)CN1; NMeNle = CCCC[C@H](NC)C(=O)O; NMeA = CN[C@@H](C)C(=O)O; Dab = NCC[C@H](N)C(=O)O

Target: T1, PD-1/PD-L1 (Homo sapiens, UniProt Q9NZQ7)
T1 construct: TVMV protease site (linker) (C); made in house; host or cells: HEK293T cells
Test: PD-1/PD-L1 Homogenous Time-Resolved Fluorescence (HTRF) binding assay
Details: PD-L1-His 10 nM, PD-1-Ig 20 nM
In short: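 Compounds preincubated 15 min with PD-L1-His (residues 18-239, 10 nM) in dPBS with 0.1% BSA, 0.05% Tween-20, then PD-1-Ig (residues 25-167, 20 nM) for 15 min. Eu-cryptate anti-Ig (1 nM) and APC anti-His (20 nM) equilibrated 30 min; 665/620 nm ratio read, IC50 derived.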

T1 sequence (Q9NZQ7 18-239): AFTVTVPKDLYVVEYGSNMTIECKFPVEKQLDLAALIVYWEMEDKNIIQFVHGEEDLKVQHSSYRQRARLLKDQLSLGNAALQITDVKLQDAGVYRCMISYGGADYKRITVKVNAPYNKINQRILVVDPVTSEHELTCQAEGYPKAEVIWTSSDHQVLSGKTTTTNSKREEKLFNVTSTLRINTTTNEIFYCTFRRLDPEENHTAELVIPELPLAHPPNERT

| IC50 [nM] | SMILES |
| --- | --- |
| 7.2 | CCCC[C@H]1C(=O)N(C)[C@@H](CCCC)C(=O)N[C@@H](CC(C)C)C(=O)N[C@H](C(=O)NCC(N)=O)CSCC(=O)N[C@@H](Cc2ccc(O)cc2)C(=O)N(C)[C@@H](C)C(=O)N[C@@H](CC(N)=O)C(=O)N2CCC[C@H]2C(=O)N[C@@H](CNC[C@H](O)[C@@H](O)[C@H](O)C(O)CO[C@H]2O[C@H](CO)[C@H](O)[C@H](O)[C@H]2O)C(=O)N[C@@H](CC(C)C)C(=O)N2C[C@H](O)C[C@H]2C(=O)N[C@@H](Cc2c[nH]c3ccccc23)C(=O)N[C@@H](CCNC[C@H](O)[C@@H](O)[C@H](O)C(O)CO[C@H]2O[C@H](CO)[C@H](O)[C@H](O)[C@H]2O)C(=O)N[C@@H](Cc2cn(CC(=O)O)c3ccccc23)C(=O)N1C (stereo partly drawn) [Example 2041] ({CH2CO}-Y[NMeA]NP[X39]L[Hyp]W[X53][Trp(1-CH2COOH)][NMeNle][NMeNle]LCG-NH2; thioether N-14) |
| 6.7 | CCCC[C@H]1C(=O)N(C)[C@@H](CCCC)C(=O)N[C@@H](CC(C)C)C(=O)N[C@H](C(=O)NCC(N)=O)CSCC(=O)N[C@@H](Cc2ccc(O)cc2)C(=O)N(C)[C@@H](C)C(=O)N[C@@H](CC(N)=O)C(=O)N2CCC[C@H]2C(=O)N[C@@H](CNC[C@H](O)[C@H](O)[C@@H](O)[C@H](C)O)C(=O)N[C@@H](CC(C)C)C(=O)N2C[C@H](O)C[C@H]2C(=O)N[C@@H](Cc2c[nH]c3ccccc23)C(=O)N[C@@H](CCN)C(=O)N[C@@H](Cc2cn(CC(=O)O)c3ccccc23)C(=O)N1C [Example 2042] ({CH2CO}-Y[NMeA]NP[X52]L[Hyp]W[Dab][Trp(1-CH2COOH)][NMeNle][NMeNle]LCG-NH2; thioether N-14) |
| 12 | CCCC[C@H]1C(=O)N(C)[C@@H](CCCC)C(=O)N[C@@H](CC(C)C)C(=O)N[C@H](C(=O)NCC(N)=O)CSCC(=O)N[C@@H](Cc2ccc(O)cc2)C(=O)N(C)[C@@H](C)C(=O)N[C@@H](CC(N)=O)C(=O)N2CCC[C@H]2C(=O)N[C@@H](CNC[C@H](O)[C@H](O)[C@@H](O)[C@H](C)O)C(=O)N[C@@H](CC(C)C)C(=O)N2C[C@H](O)C[C@H]2C(=O)N[C@@H](Cc2c[nH]c3ccccc23)C(=O)N[C@@H](CCNC[C@H](O)[C@H](O)[C@@H](O)[C@H](C)O)C(=O)N[C@@H](Cc2cn(CC(=O)O)c3ccccc23)C(=O)N1C [Example 2044] ({CH2CO}-Y[NMeA]NP[X52]L[Hyp]W[X66][Trp(1-CH2COOH)][NMeNle][NMeNle]LCG-NH2; thioether N-14) |
